Data taken from patent publication US6060485A, “Arylacetic amide derivative or salt thereof, and pharmaceutical comprising it” (SSP Co., Ltd., priority 1997, dated 2000).
Counter-ions that a name gives are not always drawn. Like-named read-outs stand apart in the source and are kept apart here.

Tests used:
[1] = test system: acetylcholine-induced bladder contraction; assay: Action against acetylcholine-induced bladder contraction (intraduodenal); assay type: in vivo, SD male rats; details: Rattus norvegicus, 2 h, read-out: Bladder contraction inhibitory action ID50
Description: Action against acetylcholine-induced bladder contraction Testing method
SD male rats weighing 230 to 390 g were each fixed on its back under intraperitoneal anesthesia with 500 mg/kg of urethane and 50 mg/kg of α-chloralose. Then, its bladder was exposed by midline abdominal incision. Into the top part of the bladder, a polyethylene tube filled with physiological saline was inserted and intracystic pressure was measured. Into the femoral vein, a venous cannula for administration of a drug was inserted, through which 10 μg/kg of acetylcholine were administered to induce bladder contraction. Then, acetylcholine was administered at intervals of 10 minutes. After the bladder contraction by acetylcholine became stable, the stomach was subjected to midline incision and the test compound was intraduodenally administered using an injection needle.
The bladder contraction was measured as a difference of intracystic pressure before and after the administration of acetylcholine.

[2] = test system: carbachol-induced hypersialosis; assay: Action against carbachol-induced hypersialosis (salivation, oral); assay type: in vivo, SD male rats; details: for ED50: Rattus norvegicus, read-out: Salivation inhibitory action ID50; for Selectivity: bladder over salivation, propiverine hydrochloride = 1.0; for Salivation inhibitory action / Bladder contraction inhibitory action: ratio of ID50 values
Description: Action against carbachol-induced hypersialosis Testing method
A test compound was orally administered to each of SD male rats weighing 100 to 150 g. Thirty minutes later, 0.1 mg/kg of carbachol was intraperitoneally administered. Immediately after the administration of carbachol, the rat was fixed by hands under non-anesthesia and under this condition, the saliva was wiped off with a cotton ball for 10 minutes. The weight of the saliva so obtained was measured.

[3] = SD male rats, intraduodenal, acetylcholine 10 μg/kg i.v., intracystic pressure, observed 120 minutes
[4] = SD male rats, oral, 30 minutes before carbachol 0.1 mg/kg i.p., saliva weight over 10 minutes

| SMILES | ED50 [1] [mg/kg] | ED50 ([2]; po) [mg/kg] | Selectivity [2] | Salivation inhibitory action / Bladder contraction inhibitory action [2] | ED50 [1, 3] [mg/kg] | ED50 [2, 4] [mg/kg] |
| --- | --- | --- | --- | --- | --- | --- |
| CCN(CC)CC#CCOC(=O)C(O)(c1ccccc1)C1CCCCC1 (centres unmarked) [Oxybutynin hydrochloride, reference compound] | 3.4 | 3.5 | 1.1 | 1.0 | – | – |
| CCCOC(C(=O)NC1CCN(Cc2ccccc2)CC1)(c1ccccc1)C(C)C (centres unmarked) [compound 3] | – | – | 4.0 | 3.6 | 9.4 | 33.9 |
| CCCOC(C(=O)OC1CCN(C)CC1)(c1ccccc1)c1ccccc1 [Propiverine hydrochloride, reference compound] | – | – | 1.0 | 0.9 | 9.9 | 9.2 |
| CCCCOC(C(=O)NC1CCN(Cc2ccccc2)CC1)(c1ccccc1)C(C)C (centres unmarked) [Compound No. 4, N-(1-benzyl-4-piperidinyl)-2-butoxy-3-methyl-2-phenylbutanamide] | – | – | 6.2 | 5.8 | 9.8 | 56.6 |
| CCCOC(C(=O)NC1CCN(Cc2ccccc2)CC1)(c1ccccc1)C1CC1 (centres unmarked) [compound 12] | – | – | 2.4 | 2.3 | 10 | 22.5 |
